Measurements reported in PubChem BioAssay AID1963872 (Molecular Pharmacology Branch, DTP, NCI, 2024).

Tested on: KRAS patient-derived spheroids with HUVEC/MSC, viability
Assay: Anticancer human tumor 519858-162-T-J1-PDC patient-derived colon adenocarcinoma cell line growth inhibition [KRAS2]
Settings: for viability, T/C: stronger effect = lower value
Summary of the method: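 Combination screen of spheroid viability in tumor-cell co-cultures with endothelial (HUVEC) and mesenchymal stem cell stroma. Each agent was tested in half-log dilutions, topping at clinical Cmax or at 10 microM without a known Cmax.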

[1] = curve of first compound, second compound 0.1 µM
[2] = curve of first compound, second compound 0.316 µM
[3] = curve of first compound, second compound 1 µM
[4] = curve of first compound, second compound 3.16 µM
[5] = curve of first compound, second compound 10 µM
[6] = second compound 0.1 µM, first compound 0.00316 µM
[7] = second compound 0.1 µM, first compound 0.01 µM
[8] = second compound 0.1 µM, first compound 0.0316 µM
[9] = second compound 0.1 µM, first compound 0.1 µM
[10] = second compound 0.316 µM, first compound 0.00316 µM
[11] = second compound 0.316 µM, first compound 0.01 µM
[12] = second compound 0.316 µM, first compound 0.0316 µM
[13] = second compound 0.316 µM, first compound 0.1 µM
[14] = second compound 1 µM, first compound 0.00316 µM
[15] = second compound 1 µM, first compound 0.01 µM
[16] = second compound 1 µM, first compound 0.0316 µM
[17] = second compound 1 µM, first compound 0.1 µM
[18] = second compound 3.16 µM, first compound 0.00316 µM
[19] = second compound 3.16 µM, first compound 0.01 µM
[20] = second compound 3.16 µM, first compound 0.0316 µM
[21] = second compound 3.16 µM, first compound 0.1 µM
[22] = second compound 10 µM, first compound 0.01 µM
[23] = second compound 10 µM, first compound 0.0316 µM
[24] = second compound 10 µM, first compound 0.1 µM
[25] = second compound 0.1 µM, first compound 0.316 µM
[26] = second compound 0.1 µM, first compound 1 µM
[27] = second compound 0.1 µM, first compound 3.16 µM
[28] = second compound 0.1 µM, first compound 10 µM
[29] = second compound 0.316 µM, first compound 0.316 µM
[30] = second compound 0.316 µM, first compound 1 µM
[31] = second compound 0.316 µM, first compound 3.16 µM
[32] = second compound 0.316 µM, first compound 10 µM
[33] = second compound 1 µM, first compound 0.316 µM
[34] = second compound 1 µM, first compound 1 µM
[35] = second compound 1 µM, first compound 3.16 µM
[36] = second compound 1 µM, first compound 10 µM
[37] = second compound 3.16 µM, first compound 0.316 µM
[38] = second compound 3.16 µM, first compound 1 µM
[39] = second compound 3.16 µM, first compound 3.16 µM
[40] = second compound 3.16 µM, first compound 10 µM
[41] = second compound 10 µM, first compound 0.316 µM
[42] = second compound 10 µM, first compound 1 µM
[43] = second compound 10 µM, first compound 3.16 µM
[44] = second compound 10 µM, first compound 10 µM
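Also: compound exposure lasted seven days before readout.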
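For viability, T/C in this document: 100% = DMSO vehicle control viability.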

| Structure (SMILES) | IC50 [1] [nM] | IC50 [2] [nM] | IC50 [3] [nM] | IC50 [4] [nM] | IC50 [5] [nM] | viability, T/C [8] [%] | viability, T/C [9] [%] | viability, T/C [12] [%] | viability, T/C [13] [%] | viability, T/C [16] [%] | viability, T/C [17] [%] | viability, T/C [20] [%] | viability, T/C [21] [%] | viability, T/C [23] [%] | viability, T/C [24] [%] | viability, T/C [25] [%] | viability, T/C [26] [%] | viability, T/C [29] [%] | viability, T/C [30] [%] | viability, T/C [33] [%] | other results |
| --- | --- | --- | --- | --- | --- | --- | --- | --- | --- | --- | --- | --- | --- | --- | --- | --- | --- | --- | --- | --- | --- |
| Cn1ncnc1[C@H]1c2n[nH]c(=O)c3cc(F)cc(c23)N[C@@H]1c1ccc(F)cc1 + COc1cc2nc(C)nc(NC(C)c3cc(N)cc(C(F)(F)F)c3)c2cc1OC1CCOC1 | > 100 | > 100 | > 100 | > 100 | > 100 | 76.9 | 80.1 | 77 | 74.5 | 68 | 58 | 47.8 | 70.6 | 57.8 | 48.4 | – | – | – | – | – | viability, T/C (second compound 0.1 µM, first compound 0.000316 µM): 71.8%; viability, T/C (second compound 0.1 µM, first compound 0.001 µM): 95.3%; viability, T/C [6]: 73.5%; viability, T/C [7]: 71.8%; viability, T/C (second compound 0.316 µM, first compound 0.000316 µM): 68.2%; viability, T/C (second compound 0.316 µM, first compound 0.001 µM): 68.7%; viability, T/C [10]: 59.2%; viability, T/C [11]: 74.9%; viability, T/C (second compound 1 µM, first compound 0.000316 µM): 74.7%; viability, T/C (second compound 1 µM, first compound 0.001 µM): 67.3%; viability, T/C [14]: 70.9%; viability, T/C [15]: 97.4%; viability, T/C (second compound 3.16 µM, first compound 0.000316 µM): 45.8%; viability, T/C (second compound 3.16 µM, first compound 0.001 µM): 60.3%; viability, T/C [18]: 45.7%; viability, T/C [19]: 69.8%; viability, T/C (second compound 10 µM, first compound 0.000316 µM): 49.7%; viability, T/C (second compound 10 µM, first compound 0.001 µM): 55.6%; viability, T/C (second compound 10 µM, first compound 0.00316 µM): 57.8%; viability, T/C [22]: 50.7% |
| CCNC(=O)CC1N=C(c2ccc(Cl)cc2)c2cc(OC)ccc2-n2c(C)nnc21 (configuration not stated) + COc1cc2nc(C)nc(NC(C)c3cc(N)cc(C(F)(F)F)c3)c2cc1OC1CCOC1 | 1410 | 656 | 531 | 367 | 106 | 82.4 | 90.9 | 78.8 | 125 | 71.1 | 58.3 | 70 | 90.5 | 58 | 48 | 86.2 | 67.9 | 78.3 | 33.1 | 66.2 | viability, T/C [27]: 7.95%; viability, T/C [28]: 5.72%; viability, T/C [31]: 8.12%; viability, T/C [32]: 9.79%; viability, T/C [34]: 31.5%; viability, T/C [35]: 5.67%; viability, T/C [36]: 7.44%; viability, T/C [37]: 55.4%; viability, T/C [38]: 13.8%; viability, T/C [39]: 6.83%; viability, T/C [40]: 9.55%; viability, T/C [41]: 33%; viability, T/C [42]: 7.95%; viability, T/C [43]: 6.57%; viability, T/C [44]: 5.25% |
| CNCc1ccccc1-c1csc(C(C)Nc2nc(C)nc3cc(OC)c(OC)cc23)c1 (configuration not stated) | – | – | – | – | – | – | – | – | – | – | – | – | – | – | – | – | – | – | – | – | IC50 (compound alone, run of 07/19/2021): 3.87 µM [middle of 5 runs]; IC50 (compound alone, run of 07/26/2021): 3.11 µM [middle of 5 runs] |
| CCN1CCN(Cc2ccc(Nc3ncc(F)c(-c4cc(F)c5nc(C)n(C(C)C)c5c4)n3)nc2)CC1 + C=CC(=O)N1CCN(c2nc(OCC3CCCN3C)nc3c2CCN(c2cccc4cccc(C)c24)C3)CC1CC#N | 599 | > 1000 | 654 | > 1000 | – | 75.8 | 76.4 | 70.7 | 64.9 | 60.8 | 63 | 64.4 | 69.2 | – | – | 68.7 | 34.9 | 49.1 | 56.5 | 73 | IC50 (curve of first compound, second compound 0.0316 µM): > 1000 nM; viability, T/C (second compound 0.0316 µM, first compound 0.00316 µM): 76.5%; viability, T/C (second compound 0.0316 µM, first compound 0.01 µM): 57.7%; viability, T/C (second compound 0.0316 µM, first compound 0.0316 µM): 72.2%; viability, T/C (second compound 0.0316 µM, first compound 0.1 µM): 63.6%; viability, T/C (second compound 0.0316 µM, first compound 0.316 µM): 81.8%; viability, T/C (second compound 0.0316 µM, first compound 1 µM): 66.2%; viability, T/C [6]: 81.6%; viability, T/C [7]: 79.1%; viability, T/C [10]: 61.7%; viability, T/C [11]: 78.4%; viability, T/C [14]: 82.1%; viability, T/C [15]: 71.8%; viability, T/C [34]: 38.4%; viability, T/C [18]: 51.3%; viability, T/C [19]: 86.8%; viability, T/C [37]: 76%; viability, T/C [38]: 37.4% |
| COc1cc2nccc(Oc3ccc(NC(=O)C4(C(=O)Nc5ccc(F)cc5)CC4)cc3)c2cc1OC + C=CC(=O)N1CCN(c2nc(=O)n(-c3c(C)ccnc3C(C)C)c3nc(-c4c(O)cccc4F)c(F)cc23)C(C)C1 | > 10000 | > 10000 | > 10000 | > 10000 | > 10000 | 77.8 | 91.2 | 97.1 | 99 | 91.5 | 87.7 | 88.2 | 73.3 | 94.7 | 89.5 | 93.5 | 93.6 | 92.3 | 86.6 | 91.7 | viability, T/C [27]: 71.8%; viability, T/C [28]: 185%; viability, T/C [31]: 84.8%; viability, T/C [32]: 135%; viability, T/C [34]: 98.7%; viability, T/C [35]: 105%; viability, T/C [36]: 134%; viability, T/C [37]: 69.8%; viability, T/C [38]: 81%; viability, T/C [39]: 74.2%; viability, T/C [40]: 109%; viability, T/C [41]: 75.6%; viability, T/C [42]: 68.2%; viability, T/C [43]: 61.9%; viability, T/C [44]: 131% |
| CCNC(=O)CC1N=C(c2ccc(Cl)cc2)c2cc(OC)ccc2-n2c(C)nnc21 (configuration not stated) + C=CC(=O)N1CCN(c2nc(=O)n(-c3c(C)ccnc3C(C)C)c3nc(-c4c(O)cccc4F)c(F)cc23)C(C)C1 | 2660 | 2380 | 2560 | 2210 | 2680 | 120 | 97.1 | 102 | 95.2 | 76 | 74.6 | 93.9 | 86.3 | 93.9 | 78.5 | 74.8 | 70.3 | 79.8 | 54.7 | 70.4 | viability, T/C [27]: 42.1%; viability, T/C [28]: 37.1%; viability, T/C [31]: 53%; viability, T/C [32]: 29.7%; viability, T/C [34]: 79.6%; viability, T/C [35]: 44.2%; viability, T/C [36]: 28.3%; viability, T/C [37]: 101%; viability, T/C [38]: 78.2%; viability, T/C [39]: 37.6%; viability, T/C [40]: 29.4%; viability, T/C [41]: 97.6%; viability, T/C [42]: 84.7%; viability, T/C [43]: 44.1%; viability, T/C [44]: 25.4% |
| CC(=O)OC12COC1CC(O)C1(C)C(=O)C(O)C3=C(C)C(OC(=O)C(O)C(NC(=O)OC(C)(C)C)c4ccccc4)CC(O)(C(OC(=O)c4ccccc4)C21)C3(C)C (configuration not stated) + CC1OCC2(CCN(c3cnc(Sc4ccnc(N)c4Cl)c(N)n3)CC2)C1N | > 3160 | > 3160 | > 3160 | 261 | 205 | 71.1 | 89.4 | 84.8 | 90.3 | 71.2 | 104 | 77.2 | 64.7 | 79.8 | 58.8 | 109 | 79.5 | 55.5 | 63.4 | 81.8 | viability, T/C [7]: 73.8%; viability, T/C [27]: 80.7%; viability, T/C [11]: 79.9%; viability, T/C [31]: 51.5%; viability, T/C [15]: 88.9%; viability, T/C [34]: 83.3%; viability, T/C [35]: 101%; viability, T/C [19]: 59.6%; viability, T/C [37]: 46.9%; viability, T/C [38]: 28.5%; viability, T/C [39]: 36.3%; viability, T/C [22]: 74.3%; viability, T/C [41]: 36.1%; viability, T/C [42]: 50.6%; viability, T/C [43]: 47.4% |
